Test results taken from US9359341B2, “Aldehyde derivative of substitute oxazolidinones” (WANBURY LTD., priority 2012, dated 2016).

Columns and labels:
[1] = In vitro stability in human plasma; assay type: in vitro ADME
Experimental: (§1) The final concentration of the test compound in the assay is 5 micromolar. […] C. The 100 microliters of aliquot at time point was removed and diluted with ice cold acetonitrile containing IS (200.mu·L) to stop the reactions. Samples are centrifuged at 10,000 RPM for 5 minutes to precipitate proteins. Supernatants are transferred to micro centrifuge tubes and stored at −20° C. for analysis of LC/MS/MS. The percent parent remaining of the test substance is calculated as ratio of peak area at each time point to peak area ratio at zero min, multiplied by 100.
(§2) API 4000, ESI Agilent 1100 column: Gemini Nx 100 mm×4.6 mm 5.1; column temperature: 30° C.; eluent A: 0.1% formic acid in water, eluent B: acetonitrile; gradient: 0-2.5 min 95% A, 5% B; 2.5-2.6 min 5% A, 95% B; 2.6-4.2 min 95% A, 5% B; flow rate: 0.8 ml/min; ESI. Q1:464.098, Q3:144.255

[2] = In vitro stability in rat plasma; assay type: in vitro ADME
Experimental: as §1, §2

[3] = In vitro stability in mouse plasma; assay type: in vitro ADME
Experimental: as §1, §2

CYP1A2 = CYP1A2 (Homo sapiens (Human), UniProt P05177); assay: CYP inhibition assay; assay type: in vitro ADME; settings: pooled human liver microsomes; extrapolated IC50 derived from 3 μM; read-out: IC50 (μM) of CYP isoforms, 1A2
Experimental: (§3) The ability of substances to inhibit CYP1A2, CYP2C9, CYP2D6, CYP2C19, CYP2J2 and CYP3A4 in humans was investigated with pooled human liver microsomes as enzyme source in the presence of standard substrates (see below) which form CYP-isoform-specific metabolites.
Standard incubation mixtures comprise NADPH and substrates in 100 mM phosphate buffer (pH 7.4) in a total volume of 200 μl. Test compound are dissolved in acetonitrile. Incubated with pooled human liver microsomes at 37° C. for a defined time. The reactions are stopped by adding 100 μl of acetonitrile in which a suitable internal standard is always present. Precipitated proteins are removed by centrifugation, and the supernatants analyzed by LC-MS/MS.

CYP2C19 = CYP2C19 (Homo sapiens (Human), UniProt P33261); assay: CYP inhibition assay; assay type: in vitro ADME; settings: pooled human liver microsomes; extrapolated IC50 derived from 3 μM; read-out: IC50 (μM) of CYP isoforms, 2C19
Experimental: as §3
(§4) Standard incubation mixtures comprise NADPH and substrates in 100 mM phosphate buffer (pH 7.4) in a total volume of 200 μl. Test compound are dissolved in acetonitrile. Incubated with pooled human liver microsomes at 37° C. for a defined time. The reactions are stopped by adding 100 μl of acetonitrile in which a suitable internal standard is always present. Precipitated proteins are removed by centrifugation, and the supernatants analyzed by LC-MS/MS. The data represents the extrapolated IC50 (μM) concentration derived from 3 μM.

CYP2C9 = CYP2C9 (Homo sapiens (Human), UniProt P11712); assay: CYP inhibition assay; assay type: in vitro ADME; settings: pooled human liver microsomes; extrapolated IC50 derived from 3 μM; read-out: IC50 (μM) of CYP isoforms, 2C9
Experimental: as §3, §4

CYP2D6 = CYP2D6 (Homo sapiens (Human), UniProt P10635); assay: CYP inhibition assay; assay type: in vitro ADME; settings: pooled human liver microsomes; extrapolated IC50 derived from 3 μM; read-out: IC50 (μM) of CYP isoforms, 2D6
Experimental: as §3, §4

CYP2J2 = CYP2J2 (Homo sapiens (Human), UniProt P51589); assay: CYP inhibition assay; assay type: in vitro ADME; settings: pooled human liver microsomes; extrapolated IC50 derived from 3 μM
Experimental: as §3, §4

[4] = In vitro liver microsomal stability assay (human); assay type: in vitro ADME; settings: human liver microsomes
Experimental: (§5) Liver microsomal stability assays are conducted at 1 mg per mL liver microsome protein with an NADPH in phosphate buffer (100 mM, pH 7.4). Test compounds (compound of formula B of the invention) are prepared as solutions in 20% methanol-water and added to the assay mixture (final assay concentration 1 μM) and incubated at 37° C. Aliquots (100.μ·L) are taken out at times 0, 15, and 30 minutes, and diluted with ice cold acetonitrile containing IS (200.mu·L) to stop the reactions. Samples are centrifuged at 10,000 RPM for 5 minutes to precipitate proteins. Supernatants are transferred to micro centrifuge tubes and stored at −20° C. for analysis of LC/MS/MS. The percent parent remaining of the test substance is calculated as Ratio of peak area at each time point to peak area ratio at zero min, multiplied by 100. The compound formula (B) is converted to Rivaroxaban in microsomal assay.

[5] = In vitro liver microsomal stability assay (rat); assay type: in vitro ADME; settings: rat liver microsomes
Experimental: as §5

[6] = In vitro liver microsomal stability assay (mouse); assay type: in vitro ADME; settings: mouse liver microsomes
Experimental: as §5

[7] = Intravenous and oral excretion profile in Wistar rats; assay type: in vivo; settings: for Mean (ng) Urine: IV 1 mg/Kg, rivaroxaban in urine
Experimental: On the day before administration of the substance, a catheter for obtaining blood is implanted in the jugular vein of the experimental animals (male Wistar rats, body weight 200-250 g) under Isoflurane. anesthesia.
Urine and faeces are taken collected from metabolic cages over the course of 144 h after administration of the substance. The administration volume is 10 ml/kg for oral and 1 ml/kg for IV in male Wistar rats. Intravenous administration is via a formulation of 2% N—N Dimethyl acetamide/ethanol 10%/PEG400 (30%)/water for IV injection (58%) and via Tween80/PEG400/sterile water in the case of oral administration. Urine and faeces collection is 0-4, 4-8, 8-24, 24-48, 48-72, 72-96, 96-120, 120-144 in the case of IV and for oral administration.
Urine and faeces was processed and IS containing Acetonitrile is added to a defined urine/faeces and precipitated. After centrifugation, compound formula (B) and, where appropriate, known cleavage products of the compound formula (B) in the supernatant are determined quantitatively using a suitable LC/MS-MS method.
The measured urine and faeces concentrations are used to calculate parameters of the test substance and of the active ingredient compound (A) liberated there from, such as AUC and Cmax.
Acetonitrile containing IS is added to the study samples, calibration samples and QCs, and the protein is precipitated using acetonitrile. Vortexed and centrifuged and the supernatant is injected by LC-MS/MS (API 4000, AB Sciex). Chromatographic separation is carried out on an Shimadzu UFLC. The injection volume is 10 μl. The separation column used is a Phenomenex Gemini NX 4.6×5μ. 100 mm, adjusted to a temperature of 30° C. A binary mobile phase gradient at 800.mu·l/min is used (A: 0.1% formic acid in water, B: acetonitrile: API 4000, ESI Agilent 1100 column: Gemini Nx 100 mm×4.6 mm 5.μ; column temperature: 30° C.; eluent A: 0.1% formic acid in water, eluent B: acetonitrile; gradient: 0-2.5 min 95% A, 5% B; 2.5-2.6 min 5% A, 95% B; 2.6-4.2 min 95% A, 5% B; flow rate: 0.8 ml/min; ESI. Q1:464.098, Q3:144.255 The temperature of the Turbo V ion source is 500° C. The following MS instrument parameters are used: curtain gas 20 units, ion spray voltage 5 kV, gas 1 50 units gas 2 50 units, CAD gas 6 units. The substances are quantified by peak heights or areas using extracted ion chromatograms of specific MRM experiments.

CYP2D6, sequence (P10635 whole entry, canonical isoform): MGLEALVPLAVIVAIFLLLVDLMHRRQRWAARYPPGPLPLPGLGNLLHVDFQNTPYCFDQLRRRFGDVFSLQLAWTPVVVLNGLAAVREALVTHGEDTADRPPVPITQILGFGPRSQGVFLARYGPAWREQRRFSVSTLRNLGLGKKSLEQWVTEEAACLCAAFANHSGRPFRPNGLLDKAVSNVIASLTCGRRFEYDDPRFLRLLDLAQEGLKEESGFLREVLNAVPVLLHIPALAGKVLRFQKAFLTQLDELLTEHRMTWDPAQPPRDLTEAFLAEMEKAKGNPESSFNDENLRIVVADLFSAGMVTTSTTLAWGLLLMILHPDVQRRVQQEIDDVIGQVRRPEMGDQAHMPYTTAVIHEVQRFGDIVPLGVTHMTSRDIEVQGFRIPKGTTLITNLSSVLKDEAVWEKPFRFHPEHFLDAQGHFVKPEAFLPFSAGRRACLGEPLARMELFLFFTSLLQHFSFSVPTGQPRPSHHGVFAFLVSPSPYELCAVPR
CYP2C19, sequence (P33261 whole entry, canonical isoform): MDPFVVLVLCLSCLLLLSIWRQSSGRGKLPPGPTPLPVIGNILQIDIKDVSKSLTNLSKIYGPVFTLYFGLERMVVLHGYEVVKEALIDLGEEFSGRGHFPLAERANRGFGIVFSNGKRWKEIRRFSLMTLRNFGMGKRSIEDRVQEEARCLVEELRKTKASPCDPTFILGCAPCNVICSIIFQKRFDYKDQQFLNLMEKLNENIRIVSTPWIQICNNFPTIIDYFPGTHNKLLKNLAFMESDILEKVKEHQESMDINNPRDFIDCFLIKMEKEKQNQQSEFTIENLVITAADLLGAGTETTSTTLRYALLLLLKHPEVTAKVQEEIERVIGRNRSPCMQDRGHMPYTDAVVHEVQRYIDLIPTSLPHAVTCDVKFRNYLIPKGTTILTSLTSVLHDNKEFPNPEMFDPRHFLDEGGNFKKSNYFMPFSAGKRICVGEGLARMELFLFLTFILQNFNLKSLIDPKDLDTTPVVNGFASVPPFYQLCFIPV
CYP2J2, sequence (P51589 whole entry): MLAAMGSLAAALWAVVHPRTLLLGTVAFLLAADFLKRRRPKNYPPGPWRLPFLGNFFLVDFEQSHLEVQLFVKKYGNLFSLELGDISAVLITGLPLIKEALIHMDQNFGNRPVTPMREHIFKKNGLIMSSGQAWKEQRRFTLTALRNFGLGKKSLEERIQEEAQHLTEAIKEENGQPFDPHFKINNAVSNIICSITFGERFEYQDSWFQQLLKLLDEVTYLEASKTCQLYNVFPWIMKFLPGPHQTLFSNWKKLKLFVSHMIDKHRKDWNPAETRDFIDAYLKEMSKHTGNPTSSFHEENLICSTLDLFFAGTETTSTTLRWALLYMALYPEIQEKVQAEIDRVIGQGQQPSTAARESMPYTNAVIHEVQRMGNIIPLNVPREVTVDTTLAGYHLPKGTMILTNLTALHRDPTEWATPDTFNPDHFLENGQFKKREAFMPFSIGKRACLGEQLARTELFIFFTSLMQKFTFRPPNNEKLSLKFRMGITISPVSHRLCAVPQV
CYP2C9, sequence (P11712 whole entry, canonical isoform): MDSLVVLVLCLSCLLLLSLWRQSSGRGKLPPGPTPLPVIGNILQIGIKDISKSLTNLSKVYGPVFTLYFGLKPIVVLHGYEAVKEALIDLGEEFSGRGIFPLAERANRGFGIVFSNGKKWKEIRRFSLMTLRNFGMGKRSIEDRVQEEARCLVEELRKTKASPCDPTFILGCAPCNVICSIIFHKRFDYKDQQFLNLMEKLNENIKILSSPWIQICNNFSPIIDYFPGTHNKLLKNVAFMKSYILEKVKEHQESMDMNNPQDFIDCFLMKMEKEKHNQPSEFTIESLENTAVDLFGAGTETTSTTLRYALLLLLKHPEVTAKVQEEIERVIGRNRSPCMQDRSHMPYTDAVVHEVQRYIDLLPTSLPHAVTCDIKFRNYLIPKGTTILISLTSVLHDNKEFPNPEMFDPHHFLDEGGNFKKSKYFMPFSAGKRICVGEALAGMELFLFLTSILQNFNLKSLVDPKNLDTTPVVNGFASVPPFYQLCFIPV
CYP1A2, sequence (P05177 whole entry, canonical isoform): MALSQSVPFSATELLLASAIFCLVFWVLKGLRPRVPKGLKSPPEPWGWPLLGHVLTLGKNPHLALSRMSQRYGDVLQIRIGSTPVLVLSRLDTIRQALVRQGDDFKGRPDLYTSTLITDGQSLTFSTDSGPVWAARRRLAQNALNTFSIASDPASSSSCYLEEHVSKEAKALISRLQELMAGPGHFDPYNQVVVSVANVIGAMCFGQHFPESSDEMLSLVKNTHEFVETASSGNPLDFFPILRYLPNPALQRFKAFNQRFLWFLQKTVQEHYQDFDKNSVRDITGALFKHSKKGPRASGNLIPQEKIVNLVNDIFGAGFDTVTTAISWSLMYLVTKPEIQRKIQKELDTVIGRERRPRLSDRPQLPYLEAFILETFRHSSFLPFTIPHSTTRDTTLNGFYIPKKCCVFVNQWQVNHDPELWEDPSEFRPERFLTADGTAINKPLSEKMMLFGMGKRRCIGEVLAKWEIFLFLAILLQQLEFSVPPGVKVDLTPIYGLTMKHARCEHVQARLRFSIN

## O=C(NC[C@H]1CN(c2ccc(N3CCOCC3=O)cc2)C(=O)O1)c1ccc(Cl)s1 [Rivaroxaban, 5-chloro-N-({(5S)-2-oxo-3-[4-(3-oxomorpholin-4-yl)phenyl]-1,3-oxazolidin-5-yl}methyl)thiophene-2-carboxamide]
[1]
  Conversion: unchanged, stable in plasma: 99.99%,
[1]; 0 min
  % Parent remaining (Human): 100%
[1]; 30 min
  % Parent remaining (Human): 100%
[1]; 60 min
  % Parent remaining (Human): 99.68%
[2]
  Conversion: unchanged, stable in plasma: 88.4%,
[2]; 0 min
  % Parent remaining(rat): 100%
[2]; 30 min
  % Parent remaining(rat): 82.35%
[2]; 60 min
  % Parent remaining(rat): 88.4%
[3]; 0 min
  % Parent remaining(Mouse): 100%
[3]; 30 min
  % Parent remaining(Mouse): 100%
[3]; 60 min
  % Parent remaining(Mouse): 100%
CYP1A2
  IC50: 18.9 µM
CYP2C19
  IC50: 13.2 µM
CYP2C9
  IC50: 16.7 µM
CYP2D6
  IC50: 13.2 µM
CYP2J2
  IC50 (μM) of CYP isoforms, 2J2: No inhibition
[4]
  % metabolised: 99.99%
  Observation (metabolism; for Test Product: of the formed rivaroxaban): High
[4]; 0 min
  % Parent remaining (Human): 100%
[4]; 15 min
  % Parent remaining (Human): 0.01%
[4]; 30 min
  % Parent remaining (Human): 0.01%
[5]
  % metabolised: 99.98%
  Observation (metabolism; for Test Product: of the formed rivaroxaban): High
[5]; 0 min
  % Parent remaining(rat): 100%
[5]; 15 min
  % Parent remaining(rat): 0.01%
[5]; 30 min
  % Parent remaining(rat): 0.02%
[6]
  % metabolised: 99.98%
  Observation (metabolism; for Test Product: of the formed rivaroxaban): High
[6]; 0 min
  % Parent remaining(Mouse): 100%
[6]; 15 min
  % Parent remaining(Mouse): 0.03%
[6]; 30 min
  % Parent remaining(Mouse): 0.02%
[7]; 120 h
  Mean (ng) Urine: BLQ
[7]; 144 h
  Mean (ng) Urine: BLQ
[7]; male, Wistar, rat, faeces, iv, 1 mg/kg
  concentration at 144 h: 16.8 ng/g
